ChEMBL document CHEMBL1144044, “Synthesis and biological activity of quinolinone and dihydroquinolinone p38 MAP kinase inhibitors” (Bioorg Med Chem Lett, 2008)

Experiments:
[1] = molecular target: T1, Mitogen-activated protein kinase 14 (Homo sapiens, UniProt Q16539); experiment: Inhibition of p38alpha
[2] = molecular target: T1, Mitogen-activated protein kinase 14; experiment: Inhibition of p38-alpha by whole blood assay
[3] = molecular target: T1, Mitogen-activated protein kinase 14; experiment: Inhibition of p38-alpha at 100 nM
[4] = molecular target: T1, Mitogen-activated protein kinase 14; experiment: Inhibition of p38-alpha at 10 uM by whole blood assay
[5] = molecular target: T1, Mitogen-activated protein kinase 14; experiment: Inhibition of p38-alpha at 1250 nM
[6] = molecular target: T1, Mitogen-activated protein kinase 14; experiment: Inhibition of p38-alpha at 1000 nM

T1 sequence (Q16539 whole entry): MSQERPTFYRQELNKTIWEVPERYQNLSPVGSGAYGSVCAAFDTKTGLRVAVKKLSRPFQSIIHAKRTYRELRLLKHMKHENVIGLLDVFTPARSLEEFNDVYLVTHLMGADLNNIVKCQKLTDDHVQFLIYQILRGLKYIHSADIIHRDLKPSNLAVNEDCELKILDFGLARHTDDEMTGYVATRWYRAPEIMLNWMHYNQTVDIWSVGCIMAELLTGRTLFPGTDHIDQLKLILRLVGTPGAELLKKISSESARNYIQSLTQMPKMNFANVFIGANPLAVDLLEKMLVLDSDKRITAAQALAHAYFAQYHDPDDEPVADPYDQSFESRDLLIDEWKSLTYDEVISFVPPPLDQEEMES

| IC50 ([1]; read-out: IC50) [nM] | IC50 [2] [nM] | SMILES | also measured |
| --- | --- | --- | --- |
| 4 | – | O=C1C(O)Cc2c(-c3ccccc3Cl)cc(O)cc2N1c1c(Cl)cccc1Cl (stereo unspecified) | – |
| 0.7 | – | O=c1ccc2c(-c3ccccc3Cl)cc(O)cc2n1-c1c(Cl)cccc1Cl | – |
| 5 | – | O=c1c(O)cc2c(-c3ccccc3Cl)cc(O)cc2n1-c1c(Cl)cccc1Cl | – |
| 27.5 | – | O=C1C(O)Cc2c(-c3ccccc3Cl)cccc2N1c1c(Cl)cccc1Cl (stereo unspecified) | – |
| 9 | – | COc1cc(-c2ccccc2Cl)c2c(c1)N(c1c(Cl)cccc1Cl)C(=O)C(O)C2 (stereo unspecified) | – |
| 1.5 | – | COc1cc(-c2ccccc2Cl)c2ccc(=O)n(-c3c(Cl)cccc3Cl)c2c1 | inhibition [4]: 75% |
| 6 | – | O=c1ccc2c(-c3ccccc3Cl)cccc2n1-c1c(Cl)cccc1Cl | – |
| 28 | – | COc1cc(-c2ccccc2Cl)c2cc(O)c(=O)n(-c3c(Cl)cccc3Cl)c2c1 | – |

The next lines start with the compound.

| SMILES | IC50 ([1]; read-out: IC50) [nM] | IC50 [2] [nM] | also measured |
| --- | --- | --- | --- |
| C[C@@H](N)C(=O)NCCOc1cc(-c2ccccc2Cl)c2ccc(=O)n(-c3c(Cl)cccc3Cl)c2c1 | 0.2 | 47 | – |
| O=c1ccc2c(-c3ccccn3)cccc2n1-c1c(Cl)cccc1Cl | 350 | – | – |
| NCC(=O)NCCOc1cc(-c2ccccc2Cl)c2ccc(=O)n(-c3c(Cl)cccc3Cl)c2c1 | 0.3 | 80 | – |
| [N-]=[N+]=NC1Cc2c(-c3ccccc3Cl)cccc2N(c2c(Cl)cccc2Cl)C1=O (stereo unspecified) | – | – | inhibition [3]: 15% |
| O=C(NCCOc1cc(-c2ccccc2Cl)c2ccc(=O)n(-c3c(Cl)cccc3Cl)c2c1)[C@@H]1CCCN1 | 0.75 | 87 | – |
| NC(CO)C(=O)NCCOc1cc(-c2ccccc2Cl)c2ccc(=O)n(-c3c(Cl)cccc3Cl)c2c1 (stereo unspecified) | 0.5 | 200 | – |
| C[C@H](N)C(=O)NCCOc1cc(-c2ccccc2Cl)c2ccc(=O)n(-c3c(Cl)cccc3Cl)c2c1 | 0.16 | 32 | – |
| COc1cc(-c2ccccc2Cl)c2c(c1)N(c1c(Cl)cccc1Cl)C(=O)C(OC)C2 (stereo unspecified) | – | – | inhibition [5]: 63% |
| O=c1ccc2c(-c3ccccc3)cccc2n1-c1c(Cl)cccc1Cl | 13.4 | – | – |
| NC1Cc2c(-c3ccccc3Cl)cccc2N(c2c(Cl)cccc2Cl)C1=O (stereo unspecified) | – | – | IC50 [1]: Not Active |
| O=c1ccc2c(-c3cccnc3)cccc2n1-c1c(Cl)cccc1Cl | 460 | – | – |
| NC1(C(=O)NCCOc2cc(-c3ccccc3Cl)c3ccc(=O)n(-c4c(Cl)cccc4Cl)c3c2)CC1 | 1.5 | 1010 | – |
| COc1cc(-c2ccccc2Cl)c2cc(OC)c(=O)n(-c3c(Cl)cccc3Cl)c2c1 | – | – | inhibition [3]: 29% |
| O=C(NCCOc1cc(-c2ccccc2Cl)c2ccc(=O)n(-c3c(Cl)cccc3Cl)c2c1)[C@H]1CCCN1 | 0.9 | 73 | – |
| NCCC(=O)NCCOc1cc(-c2ccccc2Cl)c2ccc(=O)n(-c3c(Cl)cccc3Cl)c2c1 | 0.57 | 130 | – |
| COC1Cc2c(-c3ccccc3Cl)cccc2N(c2c(Cl)cccc2Cl)C1=O (stereo unspecified) | – | – | IC50 [1]: Not Active |
| O=c1ccc2c(-c3ccncc3)cccc2n1-c1c(Cl)cccc1Cl | – | – | inhibition [6]: 58% |
| CC(C)(N)C(=O)NCCOc1cc(-c2ccccc2Cl)c2ccc(=O)n(-c3c(Cl)cccc3Cl)c2c1 | 0.12 | 28 | – |
